Data from patent US20250304620A1, “ANTIMICROBIAL PEPTIDE AND APPLICATION THEREOF” (priority 2023, published 2025).
≈ marks a conversion by molar mass, not a printed value. Marks after values point to notes of the source that are not given here. Non-standard residues stand in square brackets, D forms with d. Residues, ends and D or L forms follow the SMILES beside them. dPhe(4-Br) = N[C@H](Cc1ccc(Br)cc1)C(=O)O; d2Nal = N[C@H](Cc1ccc2ccccc2c1)C(=O)O; dNle = CCCC[C@@H](N)C(=O)O

Columns and labels:
[1] = test system: Methicillin-resistant Staphylococcus aureus (MRSA); type: cell-based; settings: Methicillin-resistant
Excerpt: (§1) According to the Standards of Clinical and Laboratory Standards Institute (CLSI) of the USA for antimicrobial drug susceptibility test operation standards, the micronutrient serial twofold dilution method was used further determine MICs of the antimicrobial peptides LV-1 to LV-30 against 5 clinically common drug-resistant bacterial strains. The experiment was repeated 5 times in parallel. […] The tested drug-resistant strains included Methicillin-resistant Staphylococcus aureus (MRSA), carbapenem-resistant Escherichia coli (CREC), vancomycin-resistant Enterococcus (VRE), carbapenem-resistant Pseudomonas aeruginosa (CRPA), and carbapenem-resistant Klebsiella pneumoniae (CRKP).

[2] = test system: carbapenem-resistant Escherichia coli (CREC); type: cell-based; settings: carbapenem-resistant (CREC)
Excerpt: as §1

[3] = test system: carbapenem-resistant Klebsiella pneumoniae (CRKP); type: cell-based; settings: carbapenem-resistant (CRKP)
Excerpt: as §1

[4] = test system: carbapenem-resistant Pseudomonas aeruginosa (CRPA); type: cell-based; settings: carbapenem-resistant (CRPA)
Excerpt: as §1

[5] = test system: vancomycin-resistant Enterococcus (VRE); type: cell-based
Excerpt: as §1

rabbit red blood cells = type: cell-based; settings: red cells of rabbit, 1 h
[6] = test system: Pseudomonas aeruginosa ATCC 27853; assay: Injectable formulations on mice infected with peritonitis; type: in vivo, ICR mice; settings: twice a day for 3 days; for Number of mice that died on each day after infection: day 1 / Number of mice that died on each day after infection: day 2 / Number of mice that died on each day after infection: day 3 / Number of mice that died on each day after infection: day 4 / Number of mice that died on each day after infection: day 5 / Average survival times (Days): n = 10; for Average survival times (Days): observed for 14 d
In short: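 Survival readout: deaths and survival time tracked for 14 d. Treatment was tail-vein injection by body weight, twice a day for 3 consecutive days, starting right after intraperitoneal challenge with 0.2 mL of 1×10^9 CFU/mL P. aeruginosa ATCC 27853 in male and female ICR mice.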

Structure (SMILES)	MIC MRSA [1]	MIC CREC [2]	MIC CRKP [3]	MIC CRPA [4]	MIC VRE [5]	MHC (minimum hemolytic concentration, lowest concentration causing 10% hemolysis) (rabbit red blood cells)	Number of mice that died on each day after infection: day 1 ([6]; 1 mg/kg via tail vein)	Number of mice that died on each day after infection: day 2 ([6]; 1 mg/kg via tail vein)	Number of mice that died on each day after infection: day 3 ([6]; 1 mg/kg via tail vein)	Number of mice that died on each day after infection: day 4 ([6]; 1 mg/kg via tail vein)	Number of mice that died on each day after infection: day 5 ([6]; 1 mg/kg via tail vein)	Average survival times (Days) ([6]; 1 mg/kg via tail vein)	also measured
CC(=O)N[C@H](CCCNC(=N)N)C(=O)N[C@H](CCCCN)C(=O)N[C@H](CC(C)C)C(=O)N[C@H](CC(C)C)C(=O)N[C@H](Cc1ccc2ccccc2c1)C(=O)N[C@H](CCCNC(=N)N)C(=O)N[C@H](CC(C)C)C(=O)N[C@H](CCCCN)C(=O)N[C@H](Cc1ccccc1)C(=O)N[C@H](CCCNC(=N)N)C(=O)N[C@H](CCCCN)C(N)=O [LV-4] (Ac-[dR][dK][dL][dL][d2Nal][dR][dL][dK][dF][dR][dK]-NH2)	8 µg/mL (≈ 5.01 µM)	8 µg/mL (≈ 5.01 µM)	2 µg/mL (≈ 1.25 µM)	4 µg/mL (≈ 2.51 µM)	2 µg/mL (≈ 1.25 µM)	>1000 µg/mL	0 Mouse	1 Mouse	0 Mouse	2 Mouse	1 Mouse	9.9**** Days	–
CC(=O)N[C@H](CCCCN)C(=O)N[C@H](CCCCN)C(=O)N[C@H](CC(C)C)C(=O)N[C@H](CC(C)C)C(=O)N[C@H](Cc1ccc(Br)cc1)C(=O)N[C@H](CCCNC(=N)N)C(=O)N[C@H](CC(C)C)C(=O)N[C@H](CCCCN)C(=O)N[C@H](Cc1ccc(Br)cc1)C(=O)N[C@H](CCCNC(=N)N)C(=O)N[C@H](CCCCN)C(N)=O [LV-10] (Ac-[dK][dK][dL][dL][dPhe(4-Br)][dR][dL][dK][dPhe(4-Br)][dR][dK]-NH2)	4 µg/mL (≈ 2.39 µM)	4 µg/mL (≈ 2.39 µM)	2 µg/mL (≈ 1.19 µM)	2 µg/mL (≈ 1.19 µM)	8 µg/mL (≈ 4.77 µM)	>1000 µg/mL	0 Mouse	1 Mouse	1 Mouse	2 Mouse	0 Mouse	9.7*** Days	–
CCCC[C@@H](NC(=O)[C@@H](CCCCN)NC(=O)[C@@H](CCCNC(=N)N)NC(C)=O)C(=O)N[C@H](CCCC)C(=O)N[C@H](Cc1ccc2ccccc2c1)C(=O)N[C@H](CCCNC(=N)N)C(=O)N[C@H](CCCC)C(=O)N[C@H](CCCCN)C(=O)N[C@H](Cc1ccc2ccccc2c1)C(=O)N[C@H](CCCNC(=N)N)C(=O)N[C@H](CCCCN)C(N)=O [LV-12] (Ac-[dR][dK][dNle][dNle][d2Nal][dR][dNle][dK][d2Nal][dR][dK]-NH2)	8 µg/mL (≈ 4.86 µM)	8 µg/mL (≈ 4.86 µM)	4 µg/mL (≈ 2.43 µM)	2 µg/mL (≈ 1.21 µM)	4 µg/mL (≈ 2.43 µM)	>1000 µg/mL	0 Mouse	0 Mouse	2 Mouse	0 Mouse	1 Mouse	10.9**** Days	Number of mice that died on each day after infection: day 1 ([6]; 0.2 mg/kg via tail vein): 2 Mouse; Number of mice that died on each day after infection: day 2 ([6]; 0.2 mg/kg via tail vein): 1 Mouse; Number of mice that died on each day after infection: day 3 ([6]; 0.2 mg/kg via tail vein): 0 Mouse; Number of mice that died on each day after infection: day 4 ([6]; 0.2 mg/kg via tail vein): 2 Mouse; Number of mice that died on each day after infection: day 5 ([6]; 0.2 mg/kg via tail vein): 1 Mouse; Average survival times (Days) ([6]; 0.2 mg/kg via tail vein): 7.3** Days; Number of mice that died on each day after infection: day 1 ([6]; 5 mg/kg via tail vein): 0 Mouse; Number of mice that died on each day after infection: day 2 ([6]; 5 mg/kg via tail vein): 1 Mouse; Number of mice that died on each day after infection: day 3 ([6]; 5 mg/kg via tail vein): 2 Mouse; Number of mice that died on each day after infection: day 4 ([6]; 5 mg/kg via tail vein): 0 Mouse; Number of mice that died on each day after infection: day 5 ([6]; 5 mg/kg via tail vein): 1 Mouse; Average survival times (Days) ([6]; 5 mg/kg via tail vein): 9.7*** Days; survival time of mice infected with Pseudomonas aeruginosa ([6]; tail vein, observed 14 d): superior to those of the Levofloxacin group
